Test results: patent US9686985B2, “Fungicide N-cycloalkyl-N-bicyclicmethylene-carboxamide derivatives” (BAYER INTELLECTUAL PROPERTY GMBH, priority 2012, dated 2017)

Assay: log P by HPLC on reversed-phase column (EEC Directive 79/831 Annex V.A8)
Format: physicochemical
Conditions: not given
Procedure: In table 1, the log P values were determined in accordance with EEC Directive 79/831 Annex V.A8 by HPLC (High Performance Liquid Chromatography) on a reversed-phase column (C 18), using the method described below: Temperature: 40° C.; Mobile phases: 0.1% aqueous formic acid and acetonitrile; linear gradient from 10% acetonitrile to 90% acetonitrile. Calibration was carried out using unbranched alkan-2-ones (comprising 3 to 16 carbon atoms) with known log P values (determination of the log P values by the retention times using linear interpolation between two successive alkanones). lambda-max-values were determined using UV-spectra from 200 nm to 400 nm and the peak values of the chromatographic signals.
Compound `Cc1cc(C)c2c(c1)C(CN(C(=O)c1c(C(F)F)nn(C)c1F)C1CC1)CCC2` (stereo not shown) [I.37, N-cyclopropyl-3-(difluoromethyl)-N-[(5,7-dimethyl-1,2,3,4-tetrahydronaphthalen-1-yl)methyl]-5-fluoro-1-methyl-1H-pyrazole-4-carboxamide] has a chromatographic logP of 4.44.
Work on `c1ccc2c(c1)CCC2CNC1CC1` (stereo not shown) [IIf.1, N-(2,3-dihydro-1H-inden-1-ylmethyl)cyclopropanamine] yielded a chromatographic logP of 0.75.
For `Cc1cccc2c1CCC2CNC1CC1` (stereo not shown) [IIf.2, N-[(4-methyl-2,3-dihydro-1H-inden-1-yl)methyl]cyclopropanamine], the chromatographic logP was 1.
With `Cc1ccc2c(c1)CCC2CNC1CC1` (stereo not shown) [IIf.3, N-[(5-methyl-2,3-dihydro-1H-inden-1-yl)methyl]cyclopropanamine] the chromatographic logP was 0.95.
`Fc1cccc2c1CCC2CNC1CC1` (stereo not shown) [IIf.4, N-[(4-fluoro-2,3-dihydro-1H-inden-1-yl)methyl]cyclopropanamine] gave a chromatographic logP of 0.82.
`CC1(C)CC(CNC2CC2)c2ccccc21` (stereo not shown) [IIf.5, N-[(3,3-dimethyl-2,3-dihydro-1H-inden-1-yl)methyl]cyclopropanamine] showed a chromatographic logP of 1.12.
`Clc1ccc2c(c1)CCC2CNC1CC1` (stereo not shown) [IIf.6, N-[(5-chloro-2,3-dihydro-1H-inden-1-yl)methyl]cyclopropanamine] gave a chromatographic logP of 1.11.
With `Clc1cccc2c1C(CNC1CC1)CC2` (stereo not shown) [IIf.7, N-[(7-chloro-2,3-dihydro-1H-inden-1-yl)methyl]cyclopropanamine] the chromatographic logP was 0.95.
In the case of `FC(F)(F)c1ccc2c(c1)C(CNC1CC1)CC2` (stereo not shown) [IIf.8, N-{[6-(trifluoromethyl)-2,3-dihydro-1H-inden-1-yl]methyl}cyclopropanamine], the chromatographic logP is reported as 1.25.
With `Clc1cc(Cl)c2c(c1)C(CNC1CC1)CC2` (stereo not shown) [IIf.9, N-[(4,6-dichloro-2,3-dihydro-1H-inden-1-yl)methyl]cyclopropanamine] the chromatographic logP was 1.38.
Work on `Brc1cccc2c1C(CNC1CC1)CC2` (stereo not shown) [IIf.10, N-[(7-bromo-2,3-dihydro-1H-inden-1-yl)methyl]cyclopropanamine] yielded a chromatographic logP of 1.08.
For `CC1(CNC2CC2)CCCc2ccccc21` (stereo not shown) [IIf.11, N-[(1-methyl-1,2,3,4-tetrahydronaphthalen-1-yl)methyl]cyclopropanamine], the chromatographic logP was 1.1.
`CC1CCC(CNC2CC2)c2ccccc21` (stereo not shown) [IIf.12, N-[(4-methyl-1,2,3,4-tetrahydronaphthalen-1-yl)methyl]cyclopropanamine] gave a chromatographic logP of 1.22.
`Cc1cc(C)c2c(c1)C(CNC1CC1)CCC2` (stereo not shown) [IIf.13, N-[(5,7-dimethyl-1,2,3,4-tetrahydronaphthalen-1-yl)methyl]cyclopropanamine] showed a chromatographic logP of 1.75.
`COc1cccc2c1CCCC2CNC1CC1` (stereo not shown) [IIf.14, N-[(5-methoxy-1,2,3,4-tetrahydronaphthalen-1-yl)methyl]cyclopropanamine] showed a chromatographic logP of 1.28.
In the case of `Clc1cccc2c1C(CNC1CC1)CCC2` (stereo not shown) [IIf.15, N-[(8-chloro-1,2,3,4-tetrahydronaphthalen-1-yl)methyl]cyclopropanamine], the chromatographic logP is reported as 1.57.
With `c1ccc2c(c1)CCCCC2CNC1CC1` (stereo not shown) [IIf.16, N-(6,7,8,9-tetrahydro-5H-benzo[7]annulen-5-ylmethyl)cyclopropanamine] the chromatographic logP was 1.17.

Same assay, conditions: Table 1; HPLC C18, 40° C., 0.1% aqueous formic acid and acetonitrile gradient
`Cn1nc(C(F)F)c(C(=O)N(CC2CCc3cccc(Br)c32)C2CC2)c1Cl` (stereo not shown) [I.22] showed a logP of 4.08.
`COc1cccc2c1CCCC2CN(C(=O)c1c(C(F)F)nn(C)c1F)C1CC1C` (stereo not shown) [I.38] gave a logP of 4.06.
For `Cn1nc(C(F)F)c(C(=O)N(CC2(C)CCCc3ccccc32)C2CC2)c1F` (stereo not shown) [I.39], the logP was 3.96.

Same assay, conditions: reversed-phase C18 HPLC column; Table 2 (amines IIf); HPLC C18, 40° C., 0.1% aqueous formic acid and acetonitrile gradient; read-out: logP
Work on `c1ccc2c(c1)CSCC2CNC1CC1` (stereo not shown) [IIf.17, N-(3,4-dihydro-1H-isothiochromen-4-ylmethyl)cyclopropanamine] yielded a chromatographic logP of 0.86.
For `Fc1ccc2c(c1)C(CNC1CC1)CCS2` (stereo not shown) [IIf.18, N-[(6-fluoro-3,4-dihydro-2H-thiochromen-4-yl)methyl]cyclopropanamine], the chromatographic logP was 1.05.
